Experimental data from US10457707B2, “Substituted urea depsipeptide analogs as activators of the CLPP endopeptidase” (priority 2015, dated 2019).
Values after ≈ are worked out from the molar mass of the structure shown. Where two headings read alike, the source gives them in different places. *1 amine or outer side, *2 acyl side, *3 side chain or, on linkers, in order; H or OH if unused. Where a SMILES comes first, the peptide text is derived from it. Bridges are numbered along the chain shown (N, C = ends). [ ]: non-standard residue; d: D form. The star is where a group is joined. ξ: configuration not given here. NH(1,3-benzodioxol-5-yl) = c1cc2c(cc1N*)OCO2; Phe(3,5-F2) = N[C@@H](Cc1cc(F)cc(F)c1)C(=O)O; NH(1-Me-indolin-5-yl) = CN1CCc2cc(N*)ccc21; Morpholine(3S-CO) = O=C(O)[C@@H]1COCCN1; NH(4-Cl-2-F-phenyl) = Fc1cc(Cl)ccc1N*; Pro(4R-Me) = C[C@H]1CN[C@H](C(=O)O)C1; Hyp = O=C(O)[C@@H]1C[C@@H](O)CN1; NMeT = CN[C@H](C(=O)O)[C@@H](C)O; Heptenoyl(2E) = CCCC/C=C/C(=O)*; NH(4-Me-phenyl) = Cc1ccc(N*)cc1; ξNMeThr = CNC(C(=O)O)[C@@H](C)O; aThr = C[C@H](O)[C@H](N)C(=O)O; Pip = O=C(O)[C@@H]1CCCCN1; X2 = CN1CCc2ccc(N*)cc21; X1 = N#Cc1cc(N*)ccc1F; CO = O=C([*:1])[*:2]

Key:
Assay type in all cases: cell-based
[1] = Cytotoxicity assay (CellTiter-Glo cell viability, 72 hours); settings: African green monkey
In short: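 Vero cells, 5000/well, grown overnight at 37° C, 5% CO2 in DMEM with 10% FBS, then exposed to serial compound dilutions or DMSO for 72 hours. Viability read by CellTiter-Glo luminescence. IC50 from duplicate wells, reported as range over two independent experiments.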

[2] = system: Bacillus subtilis, ATCC 23857; test: Minimal inhibitory concentration assay (microbroth dilution)
In short: (§1)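 Antibacterial activity was measured by CLSI-standard microdilution in broth, using overnight aerobic incubation at 37 °C. Growth inhibition was scored visually, and MIC taken as the lowest concentration preventing growth.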

[3] = system: Staphylococcus aureus, ATCC 29213; test: as above; settings: ATCC29213, read-out: Minimal Inhibitory Concentrations S. aureus ATCC 29213
In short: as §1

[4] = system: Staphylococcus aureus, NRS70; test: as above
In short: as §1

[5] = system: Streptococcus pyogenes, ATCC 700294; test: as above
In short: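 CLSI broth microdilution: two-fold serial compound dilutions in appropriate broth, inoculated and incubated aerobically overnight at 37° C. MIC read visually as lowest concentration preventing bacterial growth.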

[6] = Bacillus subtilis, ATCC23857; read-out: Minimal Inhibitory Concentrations B. subtilis ATCC 23857
[7] = Staphylococcus aureus, NRS70; read-out: Minimal Inhibitory Concentrations S. aureus NRS70
[8] = Streptococcus pyogenes, ATCC700294; read-out: Minimal Inhibitory Concentrations S. pyogenes ATCC 700294
[9] = Vero cells, 72 hours, growth inhibition, read-out: Cytotoxicity IC50
[10] = Bacillus subtilis, ATCC23857, read-out: Minimal Inhibitory Concentrations B. subtilis ATCC 23857
[11] = Staphylococcus aureus, NRS70, read-out: Minimal Inhibitory Concentrations S. aureus NRS70
[12] = Streptococcus pyogenes, ATCC700294, read-out: Minimal Inhibitory Concentrations S. pyogenes ATCC 700294

| Structure (SMILES) | IC50 at 72 h [1] [µM] | MIC [2, 6] [µM] | MIC [3] [µM] | MIC [4, 7] [µM] | MIC [5, 8] [µM] | IC50 at 72 h [1, 9] [µM] | MIC [2, 10] [µM] | MIC [4, 11] [µM] | MIC [5, 12] [µM] | MIC ([2]; B. subtilis ATCC 23857; read-out: Minimal Inhibitory Concentrations B. subtilis ATCC 23857) [µM] |
| --- | --- | --- | --- | --- | --- | --- | --- | --- | --- | --- |
| C[C@@H]1C[C@H]2C(=O)OC[C@H](NC(=O)[C@H](Cc3cc(F)cc(F)c3)NC(=O)Nc3ccc4c(c3)OCO4)C(=O)N3C[C@H](O)C[C@H]3C(=O)N3CCOC[C@H]3C(=O)N[C@@H](C)C(=O)N2C1 [Compound 318, (S)-2-(3-(benzo[d][1,3]dioxol-5-yl)ureido)-3-(3,5-difluorophenyl)-N-((6aS,8R,12S,15aS,17R,21S,23aS)-8-hydroxy-17,21-dimethyl-6,11,15,20,23-pentaoxooctadecahydro-6H,11H,15H-[1,4]oxazino[3,4-i]dipyrrolo[2,1-c:2′,1′-l][1]oxa[4,7,10,13]tetraazacyclo-hexadecin-12-yl)propanamide] ({NH(1,3-benzodioxol-5-yl)-CO}-[Phe(3,5-F2)]S[Hyp][Morpholine(3S-CO)]A[Pro(4R-Me)]; ester 2-C) | > 100 | > 20 | 20 (≈ 16.8 µg/mL) | 20 (≈ 16.8 µg/mL) | 0.625 (≈ 0.526 µg/mL) | – | – | – | – | – |
| C[C@@H]1C[C@H]2C(=O)O[C@@H](C)[C@H](NC(=O)[C@H](Cc3cc(F)cc(F)c3)NC(=O)Nc3ccc(F)c(C#N)c3)C(=O)N3C[C@H](O)C[C@H]3C(=O)N3CCOC[C@H]3C(=O)N[C@@H](C)C(=O)N2C1 [Compound 326, (S)-2-(3-(3-cyano-4-fluorophenyl)ureido)-3-(3,5-difluorophenyl)-N-((6aS,8R,12S,13S,15aS,17R,21S,23aS)-8-hydroxy-13,17,21-trimethyl-6,11,15,20,23-pentaoxooctadecahydro-6H,11H,15H-[1,4]oxazino[3,4-i]dipyrrolo[2,1-c:2′,1′-l][1]oxa[4,7,10,13]tetraazacyclo-hexadecin-12-yl)propanamide] ({X1-CO}-[Phe(3,5-F2)][aThr][Hyp][Morpholine(3S-CO)]A[Pro(4R-Me)]; ester 2-C) | > 100 | 20 (≈ 17.1 µg/mL) | 10 (≈ 8.55 µg/mL) | 2.5 (≈ 2.14 µg/mL) | 1.25 (≈ 1.07 µg/mL) | – | – | – | – | – |
| Cc1ccc(NC(=O)N[C@@H](Cc2ccccc2)C(=O)N[C@H]2COC(=O)[C@@H]3C[C@@H](C)CN3C(=O)[C@H](C)NC(=O)[C@@H]3CCCCN3C(=O)[C@@H]3CCCN3C2=O)cc1C [Compound 206, (S)—N-((2R,6S,8aS,14aS,20S,23aS)-2,6-dimethyl-5,8,14,19,23-pentaoxooctadecahydro-1H,5H,14H,19H-pyrido[2,1-i]dipyrrolo[2,1-c:2′,1′-l][1]oxa[4,7,10,13]tetraazacyclohexadecin-20-yl)-2-(3-(3,4-dimethylphenyl)ureido)-3-phenylpropanamide] | – | – | 0.39 (≈ 0.301 µg/mL) | – | – | 74 ± 7.7 | < 0.2 | 0.39 (≈ 0.301 µg/mL) | < 0.2 | – |
| C[C@@H]1C[C@H]2C(=O)O[C@@H](C)[C@H](NC(=O)[C@H](Cc3cc(F)cc(F)c3)NC(=O)Nc3ccc4c(c3)CCN4C)C(=O)N3CCC[C@H]3C(=O)N(C)C([C@@H](C)O)C(=O)N[C@@H](C)C(=O)N2C1 (stereo partly drawn) [Compound 311, (S)-3-(3,5-difluorophenyl)-N-((2R,6S,9R,11aS,17S,18S,20aS)-9-((R)-1-hydroxyethyl)-2,6,10,18-tetramethyl-5,8,11,16,20-pentaoxohexadecahydro-1H,5H,16H-dipyrrolo[2,1-c:2′,1′-l][1]oxa[4,7,10,13]tetraazacyclohexadecin-17-yl)-2-(3-(1-methylindolin-5-yl)ureido)propanamide] ({NH(1-Me-indolin-5-yl)-CO}-[Phe(3,5-F2)][aThr]P[ξNMeThr]A[Pro(4R-Me)]; ester 2-C) | – | – | 0.156 (≈ 0.133 µg/mL) | – | – | 14.3 ± 0.3 | 0.313 (≈ 0.267 µg/mL) | 0.156 (≈ 0.133 µg/mL) | 0.156 (≈ 0.133 µg/mL) | – |
| C[C@@H]1C[C@H]2C(=O)O[C@@H](C)[C@H](NC(=O)[C@H](Cc3cc(F)cc(F)c3)NC(=O)Nc3ccc4c(c3)N(C)CC4)C(=O)N3CCC[C@H]3C(=O)N3CCCC[C@H]3C(=O)N[C@@H](C)C(=O)N2C1 [Compound 321, (S)-3-(3,5-difluorophenyl)-2-(3-(1-methylindolin-6-yl)ureido)-N-((2R,6S,8aS,14aS,20S,21S,23aS)-2,6,21-trimethyl-5,8,14,19,23-pentaoxooctadecahydro-1H,5H,14H,19H-pyrido[2,1-i]dipyrrolo[2,1-c:2′,1′-l][1]oxa[4,7,10,13]tetraazacyclo-hexadecin-20-yl)propanamide] ({X2-CO}-[Phe(3,5-F2)][aThr]P[Pip]A[Pro(4R-Me)]; ester 2-C) | – | – | 0.313 (≈ 0.266 µg/mL) | – | – | 1.39 ± 0.1 | 0.313 (≈ 0.266 µg/mL) | 0.156 (≈ 0.132 µg/mL) | 0.313 (≈ 0.266 µg/mL) | – |
| Cc1ccc(NC(=O)N[C@@H](Cc2cc(F)cc(F)c2)C(=O)N[C@@H]2C(=O)N3CCC[C@H]3C(=O)N(C)[C@@H]([C@@H](C)O)C(=O)N[C@@H](C)C(=O)N3C[C@H](C)C[C@H]3C(=O)O[C@H]2C)cc1 [Compound 38, (S)-3-(3,5-difluorophenyl)-N-((2R,6S,9S,11aS,17S,18S,20aS)-9-((R)-1-hydroxyethyl)-2,6,10,18-tetramethyl-5,8,11,16,20-pentaoxohexadecahydro-1H,5H,16H-dipyrrolo[2,1-c:2′,1′-l][1]oxa[4,7,10,13]tetraazacyclohexadecin-17-yl)-2-(3-(p-tolyl)ureido)propanamide] ({NH(4-Me-phenyl)-CO}-[Phe(3,5-F2)][aThr]P[NMeT]A[Pro(4R-Me)]; ester 2-C) | – | – | 0.05 (≈ 0.0406 µg/mL) | – | – | 46.1 ± 5.5 | 0.05 (≈ 0.0406 µg/mL) | 0.05 (≈ 0.0406 µg/mL) | 0.1 (≈ 0.0812 µg/mL) | – |
| C[C@@H]1C[C@H]2C(=O)OC[C@H](NC(=O)[C@H](Cc3ccccc3)NC(=O)Nc3ccc(OC(F)(F)F)cc3)C(=O)N3CCC[C@H]3C(=O)N3CCCC[C@H]3C(=O)N[C@@H](C)C(=O)N2C1 [Compound 205] | 88.3 ± 15.2 | – | 0.39 (≈ 0.323 µg/mL) | 0.2 (≈ 0.166 µg/mL) | 0.1 (≈ 0.0828 µg/mL) | – | – | – | – | 0.2 (≈ 0.166 µg/mL) |
| CCCC/C=C/C(=O)N[C@@H](Cc1cc(F)cc(F)c1)C(=O)N[C@@H]1C(=O)N2C[C@H](O)C[C@H]2C(=O)N2CCOC[C@H]2C(=O)N[C@@H](C)C(=O)N2C[C@H](C)C[C@H]2C(=O)O[C@H]1C [Compound 309, (E)-N—((S)-3-(3,5-difluorophenyl)-1-(((6aS,8R,12S,13S,15aS,17R,21S,23aS)-8-hydroxy-13,17,21-trimethyl-6,11,15,20,23-pentaoxooctadecahydro-6H,11H,15H-[1,4]oxazino[3,4-i]dipyrrolo[2,1-c:2′,1′-l][1]oxa[4,7,10,13]tetraazacyclohexadecin-12-yl)amino)-1-oxopropan-2-yl)hept-2-enamide] ({Heptenoyl(2E)}-[Phe(3,5-F2)][aThr][Hyp][Morpholine(3S-CO)]A[Pro(4R-Me)]; ester 2-C) | > 100 | 0.156 (≈ 0.125 µg/mL) | 0.156 (≈ 0.125 µg/mL) | 0.156 (≈ 0.125 µg/mL) | < 0.02 | – | – | – | – | – |
| C[C@@H]1C[C@H]2C(=O)OC[C@H](NC(=O)[C@H](Cc3cc(F)cc(F)c3)NC(=O)Nc3ccc4c(c3)OCO4)C(=O)N3C[C@H](O)C[C@H]3C(=O)N3CCCCC3C(=O)N[C@@H](C)C(=O)N2C1 (stereo partly drawn) [Compound 325, (S)-2-(3-(benzo[d][1,3]dioxol-5-yl)ureido)-3-(3,5-difluorophenyl)-N-((2R,6S,8aR,14aS,16R,20S,23aS)-16-hydroxy-2,6-dimethyl-5,8,14,19,23-pentaoxooctadecahydro-1H,5H,14H,19H-pyrido[2,1-i]dipyrrolo[2,1-c:2′,1′-l][1]oxa[4,7,10,13]tetraazacyclo-hexadecin-20-yl)propanamide] | > 100 | 2.5 (≈ 2.1 µg/mL) | 1.25 (≈ 1.05 µg/mL) | 1.25 (≈ 1.05 µg/mL) | 0.156 (≈ 0.131 µg/mL) | – | – | – | – | – |
| C[C@@H]1C[C@H]2C(=O)O[C@@H](C)[C@H](NC(=O)[C@H](Cc3cc(F)cc(F)c3)NC(=O)Nc3ccc(Cl)cc3F)C(=O)N3CCC[C@H]3C(=O)N(C)C([C@@H](C)O)C(=O)N[C@@H](C)C(=O)N2C1 (stereo partly drawn) [Compound 313, (S)-2-(3-(4-chloro-2-fluorophenyl)ureido)-3-(3,5-difluorophenyl)-N-((2R,6S,9R,11aS,17S,18S,20aS)-9-((R)-1-hydroxyethyl)-2,6,10,18-tetramethyl-5,8,11,16,20-pentaoxohexadecahydro-1H,5H,16H-dipyrrolo[2,1-c:2′,1′-l][1]oxa[4,7,10,13]tetraazacyclohexadecin-17-yl)propanamide] ({NH(4-Cl-2-F-phenyl)-CO}-[Phe(3,5-F2)][aThr]P[ξNMeThr]A[Pro(4R-Me)]; ester 2-C) | 13.5 ± 3.9 | < 0.02 | < 0.02 | < 0.02 | < 0.02 | – | – | – | – | – |
| CCCC/C=C/C(=O)N[C@@H](Cc1cc(F)cc(F)c1)C(=O)N[C@@H]1C(=O)N2CCC[C@H]2C(=O)N(C)[C@@H]([C@@H](C)O)C(=O)N[C@@H](C)C(=O)N2C[C@H](C)C[C@H]2C(=O)O[C@H]1C [Compound 308, (E)-N—((S)-3-(3,5-difluorophenyl)-1-(((2R,6S,9S,11aS,17S,18S,20aS)-9-((R)-1-hydroxyethyl)-2,6,10,18-tetramethyl-5,8,11,16,20-pentaoxohexadecahydro-1H,5H,16H-dipyrrolo[2,1-c:2′,1′-l][1]oxa[4,7,10,13]tetraazacyclohexadecin-17-yl)amino)-1-oxopropan-2-yl)hept-2-enamide] ({Heptenoyl(2E)}-[Phe(3,5-F2)][aThr]P[NMeT]A[Pro(4R-Me)]; ester 2-C) | 38.6 ± 1.1 | < 0.02 | 0.039 (≈ 0.0308 µg/mL) | 0.039 (≈ 0.0308 µg/mL) | < 0.02 | – | – | – | – | – |
